Measured values as given in PMC9502466, “Identification of SARS-CoV-2 Main Protease Inhibitors from a Library of Minor Cannabinoids by Biochemical Inhibition Assay and Surface Plasmon Resonance Characterized Binding Affinity” (Molecules, 2022).
Several values for one entry are separate records, joined by “and”; a condition that tells them apart may be missing. Equal entries are not always repeated. Where two headings read alike, the source gives them in different places.

Tests used:
SARS-CoV-2 M^pro [1] = target: T1, SARS-CoV-2 M^pro (Severe acute respiratory syndrome coronavirus 2, UniProt P0DTD1); assay: biochemical; details: for inhibition at 10 µM: read-out: inhibition rate of SARS-CoV-2 M^pro activity, 10 μM
[2] = test system: pseudovirus expressing the SARS-CoV-2 spike protein; details: cited from earlier work
SARS-CoV-2 M^pro [3] = target: T1, SARS-CoV-2 M^pro; parameters: method as in PMID 33290767; details: in vitro, cited from earlier work

## 11-nor-Δ^8-tetrahydrocannabinol-9-Carboxylic acid [11-OH-THC]
SARS-CoV-2 M^pro [1]; 10 µM
  inhibition rate of SARS-CoV-2 M^pro activity: 56.0%

## C=C(C)[C@@H]1C[C@H](O)C(C)=C[C@H]1c1c(O)cc(CCCCC)cc1O [6α-OH-CBD, 6α-hydroxy cannabidiol]
SARS-CoV-2 M^pro [1]
  inhibition at 10 µM: 14.7%

## CCCCCc1cc(O)c2c(c1)OC(C)(CCC=C(C)C)C=C2 (centres unmarked) [CBC, cannabichromene]
SARS-CoV-2 M^pro [1]
  inhibition at 10 µM: 42.1%

## CCCCCc1cc2c(c(O)c1C(=O)O)C=CC(C)(CCC=C(C)C)O2 (centres unmarked) [CBCA, cannabichromenic acid]
SARS-CoV-2 M^pro [1]
  inhibition at 10 µM: < 10%

## CCCc1cc2c(c(O)c1C(=O)O)C=CC(C)(CCC=C(C)C)O2 (centres unmarked) [CBCVA, cannabichromevarinic acid]
SARS-CoV-2 M^pro [1]
  inhibition at 10 µM: < 10%

## C=C(C)[C@@H]1CCC(C)=C[C@H]1c1c(O)cc(CCCCC)cc1O [CBD, cannabidiol, reference compound]
SARS-CoV-2 M^pro [1]
  inhibition at 50 µM: 13.2%
  inhibition at 250 µM: 23%
  inhibition at 10 µM: 8.74%

## C=C(C)[C@@H]1CCC(C)=C[C@H]1c1c(O)cc(CCCCC)c(C(=O)O)c1O [CBDA, cannabidiolic acid]
SARS-CoV-2 M^pro [1]; 2 μM
  inhibition at 2 µM: 11.9%
SARS-CoV-2 M^pro [1]
  inhibition at 50 µM: 84.8%
  inhibition at 250 µM: 101%
  inhibition at 10 µM: 29.4%
[2]
  effect on pseudovirus infection (in words): block the infection

## C=C(C)[C@@H]1CCC(C)=C[C@H]1c1c(O)cc(CCCCC)c(C(=O)OC)c1O [CBDAME, cannabidiolic acid methyl ester]
SARS-CoV-2 M^pro [1]
  inhibition at 10 µM: 13.7%

## C=C(C)[C@@H]1CCC(C)=C[C@H]1c1c(O)cc(CCCC)cc1O [CBDB, cannabidibutol]
SARS-CoV-2 M^pro [1]
  inhibition at 10 µM: 19.4%

## C=C(C)[C@@H]1CCC(C)=C[C@H]1c1c(O)cc(CCCCCCC)cc1O [CBDP, cannabidiphorol]
SARS-CoV-2 M^pro [1]
  inhibition at 10 µM: 6.55%

## C=C(C)[C@@H]1CCC(C)=C[C@H]1c1c(O)cc(CCC)cc1O [CBDV, cannabidivarin]
SARS-CoV-2 M^pro [1]
  inhibition at 10 µM: 6.87%

## CCCCCc1cc(O)c(C/C=C(\C)CCC=C(C)C)c(O)c1 [CBG, cannabigerol]
SARS-CoV-2 M^pro [1]
  inhibition at 10 µM: 25.4%

## CCCCCc1cc(O)c(C/C=C(\C)CCC=C(C)C)c(O)c1C(=O)O [CBGA, cannabigerolic acid]
SARS-CoV-2 M^pro [1]; 10 μM
  inhibition rate of SARS-CoV-2 M^pro activity: > 70%
SARS-CoV-2 M^pro [1]; 12.5 μM
  inhibition at 12.5 µM: 6%
SARS-CoV-2 M^pro [1]; 25 μM
  inhibition at 25 µM: 8%
SARS-CoV-2 M^pro [1]
  inhibition at 50 µM: 18.5%
  inhibition at 250 µM: 72.9%
  IC50: 14.4 µM and 20.7 µM
  inhibition at 10 µM: 72.9%
SARS-CoV-2 M^pro [1]; 100 μM
  inhibition at 100 µM: 18.2%
[2]
  effect on pseudovirus infection (in words): block the infection

## CCCCCc1cc(O)c2c(c1)OC1(C)CCC3C1C2C3(C)C (centres unmarked) [CBL, cannabicyclol]
SARS-CoV-2 M^pro [1]
  inhibition at 10 µM: 31.1%

## CCCCCc1cc(O)c2c(c1)OC(C)(C)c1ccc(C)cc1-2 [CBN, cannabinol]
SARS-CoV-2 M^pro [1]
  inhibition at 10 µM: 28.7%
SARS-CoV-2 M^pro [3]
  IC50: 7.91 µM

## C=C(C)c1ccc(C)cc1-c1c(O)cc(CCCCC)cc1O [CBND, cannabinodiol]
SARS-CoV-2 M^pro [1]
  inhibition at 10 µM: < 10%

## CCCCCc1cc2c3c(c1)OC(C)(C)C1CCC(C)(CC31)O2 (centres unmarked) [CBT, cannabicitran]
SARS-CoV-2 M^pro [1]
  inhibition at 10 µM: < 10%

## O=C[C@H](C[C@@H]1CCNC1=O)NC(=O)[C@H](Cc1cccc(F)c1)NC(=O)c1cc2ccccc2[nH]1 [M^pro 11b, reference compound]
SARS-CoV-2 M^pro [1]; 10 µM
  inhibition rate of SARS-CoV-2 M^pro activity: > 98%

## Cc1cc(C(=O)N[C@@H](C)C(=O)N[C@H](C(=O)N[C@@H](CC(C)C)C(=O)N[C@H](/C=C/C(=O)OCc2ccccc2)C[C@@H]2CCNC2=O)C(C)C)no1 [M^pro N3, reference compound]
SARS-CoV-2 M^pro [1]; 10 µM
  inhibition rate of SARS-CoV-2 M^pro activity: > 98%

## CCCCc1cc(O)c2c(c1)OC(C)(C)[C@@H]1CCC(C)=C[C@@H]21 [THCB, Δ^9-tetrahydrocannabibutol]
SARS-CoV-2 M^pro [1]; 10 μM
  inhibition rate of SARS-CoV-2 M^pro activity: > 70%
SARS-CoV-2 M^pro [1]
  IC50: 3.62 µM
  inhibition at 10 µM: 81%

## CCCCCc1cc(O)c2c(c1)OC(C)(C)[C@@H]1CCC(C)=C[C@@H]21 [Δ^9-THC, Δ^9-tetrahydrocannabinol, reference compound]
SARS-CoV-2 M^pro [3]; read-out: IC50
  IC50: 10.2 µM
